# From patent US10118902B2 (Sanford Burnham Prebys Medical Discovery Institute, priority 2014, dated 2018)
# Target: neurotensin receptor 1 (NTR1) (Homo sapiens (Human), UniProt P30989)
# Assay: NTR1 dose response, high-content imaging beta-arrestin-GFP assay in NTR1-U2OS cells
# Format: cell-based
# Conditions: read-out: EC50
# Excerpt: The cell lines utilized in the high-content imaging assays, which include the NTR1-, NTR2-, and GPR35-U2OS osteosarcomas, were obtained from the laboratory of Dr. Lawrence Barak at the Duke University Medical Center. The media used in the culture of the cell lines, as well as the assays themselves, consisted of Minimum Essential Medium (15-010-CM) and L-glutamine (25-005-CL) from Cellgro/Mediatech (Manassas, Va.), fetal bovine serum (SH30396.03) from Hyclone (Logan, Utah), penicillin-streptomycin solution (PS-20) from Omega Scientific in Tarzana, Calif., G418 (ant-gn-1) from Invivogen (San Diego, Calif.), and zeocin (R250-01) from Invitrogen (Carlsbad, Calif.). Cell lines were cultured in T225 tissue culture flasks (431082) supplied by Corning (Corning, N.Y.). Additional reagents employed include Dulbecco's Phosphate-Buffered Saline (DPBS) (21-031CV) from Cellgro/Mediatech, Trypsin-EDTA 0.05% (25300) from Invitrogen, paraformaldehyde (30528954) from Acros Organics (Geel, Belgium), Hoechst 33342 (H3570) from Invitrogen. The high-content assays were run in 1536-well plates (29326) supplied by Aurora Biotechnology (Poway, Calif.) and utilized aluminum plate seals (T592100) from E&K Scientific (Santa Clara, Calif.). […]
# The high-content imaging based NTR1 primary screen in 1536-well format was utilized to assay the MLSMR library of chemical entities in the following manner. On day one, 4 uL of a cell suspension containing 350,000 NTR1-U2OS cells per mL is added to each well of a 1536-well assay plate. Cells are plated in MEM medium containing 2.5% Fetal Bovine Serum, 1% Penicillin/Streptomycin solution, 1% L-Glutamine, 400 ug/mL G418, and 200 ug/mL Zeocin. The assay plates are then incubated overnight at 37° C., under 5% CO2. Following the overnight incubation, a volume of 60 nL of the compounds at 2 mM in DMSO (final 20 μM, 1% DMSO) was transferred to columns 5-48 of the assay plates using a LabCyte Echo Liquid Handler. Next, 60 nL of DMSO were dispensed to columns 1-4, which served as the positive and neutral control wells. […] The assay plates were centrifuged on an Eppendorf 5810 centrifuge at 1000 rpm for 1 min to ensure even liquid levels in the wells of the assay plates. The assay plates were then returned to the incubator for 1 hour. Following the hour-long incubation at 37° C., the cells in each well were fixed with 4 uL of 6% paraformaldehyde added with a Multidrop Combi. The assay plates were centrifuged as before and incubated at room temperature for 1 hour. On the Kalypsys, plates were then aspirated down to 2.5 uL per well and washed twice with 11 uL per well of DPBS, followed by a final aspiration to 2.5 uL per well. On the Combi dispenser, 5 uL of 5 ug/mL Hoechst 33342 diluted in DPBS was added to each well of assay plates. The plates were again centrifuged as previously described, sealed, and incubated for at least 1 hour prior to being loaded on a PerkinElmer Opera QEHS.
# Image acquisition was performed with a 45 plate capacity loader/stacker and the following settings: 40×0.6 NA air objective, acquisition camera set to 2-by-2 binning for an image size of 688 by 512 pixels, beta-arrestin-GFP acquired using 488 nm laser excitation and 540/75 nm emission filters, DAPI (nuclei) using 365 nm Xenon lamp excitation and 450/50 nm emission filters, 3 fields per well. Image analysis was performed using the Acapella Spot Detection Algorithm. For analysis settings and the metrics employed in the data analyses, please refer to supplemental information.
# Compounds that were successfully confirmed in quadruplicate at 20 uM were then run in dose response in the primary assay. As with the single concentration hit confirmation, the assay was performed in an identical manner as the primary screen with the following modifications. […]
# Sequence of neurotensin receptor 1 (NTR1) (P30989 whole entry, species assumed): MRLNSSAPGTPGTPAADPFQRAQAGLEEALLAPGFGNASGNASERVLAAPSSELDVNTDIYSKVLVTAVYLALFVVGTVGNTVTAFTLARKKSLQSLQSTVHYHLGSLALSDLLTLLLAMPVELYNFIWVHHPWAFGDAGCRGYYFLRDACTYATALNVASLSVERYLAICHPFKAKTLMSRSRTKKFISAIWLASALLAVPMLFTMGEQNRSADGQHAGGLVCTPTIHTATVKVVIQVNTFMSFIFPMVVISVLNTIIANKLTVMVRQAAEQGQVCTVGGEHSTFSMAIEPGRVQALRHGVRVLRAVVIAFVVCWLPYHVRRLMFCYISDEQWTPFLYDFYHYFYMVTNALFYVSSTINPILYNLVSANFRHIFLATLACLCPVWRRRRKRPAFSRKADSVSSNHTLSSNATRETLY
row,Compound,EC50 [nM]
1,"CCCN(C)c1cc2c(N3CCC(c4ccccc4OC)CC3)nc(C3CC3)nc2cc1C [Example 122, {2-cyclopropyl-4-[4-(2-methoxy-phenyl)-piperidin-1-yl]-7-methyl-quinazolin-6-yl}-methyl-propyl-amine]",500 to 2000
2,"COc1ccccc1N[C@@H]1CCN(c2nc(C3CC3)nc3ccc(N(C)CCO)cc23)C1 (stereo in doubt) [Example 153, 2-({2-cyclopropyl-4-[3-(2-methoxy-phenylamino)-pyrrolidin-1-yl]-quinazolin-6-yl}-methyl-amino)-ethanol]",> 10000
3,"COc1ccccc1C1CCN(c2nc(C3CC3)nc3ccc(N4CC[C@@H](O)C4)cc23)CC1 [Example 81, (R)-1-{2-cyclopropyl-4-[4-(2-methoxy-phenyl)-piperidin-1-yl]-quinazolin-6-yl}-pyrrolidin-3-ol]",< 500
4,"COc1ccccc1C1CCN(c2nc(C3CC3)nc3ccc(N(C)CCO)c(C)c23)CC1 [Example 126, 2-({2-cyclopropyl-4-[4-(2-methoxy-phenyl)-piperidin-1-yl]-5-methyl-quinazolin-6-yl}-methyl-amino)-ethanol]",500 to 2000
5,COc1ccccc1C1CCN(c2nc(C3(C(F)(F)F)CC3)nc3ccc(N(C)CCN4CCOCC4)cc23)CC1 [Example 48],2000 to 10000
6,"COc1ccccc1C1CCN(c2nc(-c3ccccc3)nc3ccc(N(C)CCN4CCOCC4)cc23)CC1 [Example 147, {4-[4-(2-methoxy-phenyl)-piperidin-1-yl]-2-phenyl-quinazolin-6-yl}-methyl-(2-morpholin-4-yl-ethyl)-amine]",> 10000
7,"CN(CCO)c1ccc2nc(C3(C)CC3)nc(N3CCC(c4ccccc4N4CCC4)CC3)c2c1 [Example 30, 2-{[4-[4-(2-azetidin-1-yl-phenyl)-piperidin-1-yl]-2-(1-methyl-cyclopropyl)-quinazolin-6-yl]-methyl-amino}-ethanol]",2000 to 10000
8,"CN(CCO)c1ccc2nc(C3CC3)nc(N3CCN(C4CCCC4O)CC3)c2c1 (centres unmarked) [Example 140, 2-(4-{2-cyclopropyl-6-[(2-hydroxy-ethyl)-methyl-amino]-quinazolin-4-yl}-piperazin-1-yl)-cyclopentanol]",> 10000
9,"COc1nccnc1C1CCN(c2nc(C3(CF)CC3)nc3ccc(N(C)CCO)cc23)CC1 [Example 219, 2-({2-(1-Fluoromethyl-cyclopropyl)-4-[4-(3-methoxy-pyrazin-2-yl)-piperidin-1-yl]-quinazolin-6-yl}-methyl-amino)-ethanol]",500 to 2000
10,"COc1ccccc1C1CCN(c2nc(C3(C)CC3)nc3ccc(N(C)CCN4CCCC4)cc23)CC1 [Example 24, [4-[4-(2-methoxy-phenyl)-piperidin-1-yl]-2-(1-methyl-cyclopropyl)-quinazolin-6-yl]-methyl-(2-pyrrolidin-1-yl-ethyl)-amine]",2000 to 10000
11,"COc1ccccc1C1CCN(c2nc(C3(C(F)(F)F)CCCC3)nc3ccc(N(C)CCO)cc23)CC1 [Example 55, 2-{[4-[4-(2-methoxy-phenyl)-piperidin-1-yl]-2-(1-trifluoromethyl-cyclopentyl)-quinazolin-6-yl]-methyl-amino}-ethanol]",2000 to 10000
12,"COc1ccccc1C1CCN(c2nc(C3CC3)nc3ccc(CN(C)C)cc23)CC1 [Example 86, {2-cyclopropyl-4-[4-(2-methoxy-phenyl)-piperidin-1-yl]-quinazolin-6-ylmethyl}-dimethyl-amine]",> 10000
13,"COc1ccccc1C1CCN(c2nc(C3CC3)nc3c(Cl)cc(N(C)CCO)cc23)CC1 [Example 130, 2-({8-chloro-2-cyclopropyl-4-[4-(2-methoxy-phenyl)-piperidin-1-yl]-quinazolin-6-yl}-methyl-amino)-ethanol]",< 500
14,"COc1ccccc1C1CCN(c2nc(C3CCC3)nc3ccc(N(C)CCO)cc23)CC1 [Example 43, 2-({2-cyclobutyl-4-[4-(2-methoxy-phenyl)-piperidin-1-yl]-quinazolin-6-yl}-methyl-amino)-ethanol]",500 to 2000
